In PMC8800111 (The Journal of Biological Chemistry, 2021):

Assays:
Type in all cases: cell-based
[1] = target: proteins of U3A human fibrosarcoma cells (4462 proteins detected) (Homo sapiens, UniProt Q9Y2P8); conditions: protein RCL1; U3A cells
[2] = target: proteins of U3A human fibrosarcoma cells (4462 proteins detected) (Homo sapiens, UniProt Q9UQR1); conditions: protein ZNF148; U3A, 10 μM, 2 h
[3] = target: proteins of U3A human fibrosarcoma cells (4462 proteins detected) (Homo sapiens, UniProt P82663); conditions: protein MRPS25; U3A cells
[4] = target: proteins of U3A human fibrosarcoma cells (4462 proteins detected) (Homo sapiens, UniProt Q96GM5); conditions: protein SMARCD1; U3A cells
[5] = target: proteins of U3A human fibrosarcoma cells (4462 proteins detected) (Homo sapiens, UniProt Q13596); conditions: protein SNX1; U3A cells
[6] = target: proteins of U3A human fibrosarcoma cells (4462 proteins detected) (Homo sapiens, UniProt P30419); conditions: protein NMT1, U3A cells
[7] = target: proteins of U3A human fibrosarcoma cells (4462 proteins detected) (Homo sapiens, UniProt Q13263); conditions: protein TRIM28; U3A cells
[8] = target: proteins of U3A human fibrosarcoma cells (4462 proteins detected) (Homo sapiens, UniProt O75674); conditions: protein TOM1L1; soluble abundance after heat, U3A cells
[9] = target: proteins of U3A human fibrosarcoma cells (4462 proteins detected) (Homo sapiens, UniProt Q7Z5L2); conditions: protein R3HCC1L; U3A, 10 μM, 2 h
[10] = target: proteins of U3A human fibrosarcoma cells (4462 proteins detected) (Homo sapiens, UniProt Q13185); conditions: protein CBX3, U3A cells
proteins of U3A human fibrosarcoma cells (4462 proteins detected) (Homo sapiens, UniProt Q13185), sequence (Q13185 whole entry): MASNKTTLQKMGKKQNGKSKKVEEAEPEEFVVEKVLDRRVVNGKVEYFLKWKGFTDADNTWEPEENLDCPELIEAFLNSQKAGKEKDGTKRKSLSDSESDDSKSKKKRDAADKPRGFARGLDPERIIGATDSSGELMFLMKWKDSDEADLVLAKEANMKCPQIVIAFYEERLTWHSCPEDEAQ

[11] = target: proteins of U3A human fibrosarcoma cells (4462 proteins detected) (Homo sapiens, UniProt Q9NRL3); conditions: protein STRN4; U3A cells
[12] = target: proteins of U3A human fibrosarcoma cells (4462 proteins detected) (Homo sapiens, UniProt Q9UHL4); conditions: protein DPP7; U3A cells
[13] = target: proteins of U3A human fibrosarcoma cells (4462 proteins detected) (Homo sapiens, UniProt P06748); conditions: protein NPM1; U3A cells
proteins of U3A human fibrosarcoma cells (4462 proteins detected) (Homo sapiens, UniProt P06748), sequence (P06748 whole entry): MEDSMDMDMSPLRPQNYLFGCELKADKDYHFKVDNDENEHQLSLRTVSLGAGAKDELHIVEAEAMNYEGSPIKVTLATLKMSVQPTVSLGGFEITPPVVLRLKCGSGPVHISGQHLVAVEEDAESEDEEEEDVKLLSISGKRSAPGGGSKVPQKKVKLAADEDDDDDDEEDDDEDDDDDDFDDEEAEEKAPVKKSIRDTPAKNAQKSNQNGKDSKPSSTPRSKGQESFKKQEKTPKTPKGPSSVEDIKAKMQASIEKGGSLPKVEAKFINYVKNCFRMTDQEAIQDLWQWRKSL

[14] = target: proteins of U3A human fibrosarcoma cells (4462 proteins detected) (Homo sapiens, UniProt Q12933); conditions: protein TRAF2; U3A cells
proteins of U3A human fibrosarcoma cells (4462 proteins detected) (Homo sapiens, UniProt Q12933), sequence (Q12933 whole entry): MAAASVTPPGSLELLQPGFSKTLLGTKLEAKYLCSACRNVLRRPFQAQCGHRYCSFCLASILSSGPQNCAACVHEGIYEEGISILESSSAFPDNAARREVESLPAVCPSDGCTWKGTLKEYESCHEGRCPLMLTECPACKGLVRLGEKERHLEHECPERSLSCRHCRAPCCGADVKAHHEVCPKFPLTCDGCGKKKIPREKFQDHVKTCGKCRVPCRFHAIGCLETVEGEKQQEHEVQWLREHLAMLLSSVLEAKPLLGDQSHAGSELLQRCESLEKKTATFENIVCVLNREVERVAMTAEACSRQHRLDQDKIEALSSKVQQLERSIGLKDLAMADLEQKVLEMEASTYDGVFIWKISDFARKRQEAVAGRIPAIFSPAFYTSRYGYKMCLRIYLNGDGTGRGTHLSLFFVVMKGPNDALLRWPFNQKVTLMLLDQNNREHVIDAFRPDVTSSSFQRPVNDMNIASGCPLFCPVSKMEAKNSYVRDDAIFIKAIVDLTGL

[15] = target: proteins of U3A human fibrosarcoma cells (4462 proteins detected) (Homo sapiens, UniProt Q9BQP7); conditions: protein MGME1; soluble abundance after heat, U3A cells
proteins of U3A human fibrosarcoma cells (4462 proteins detected) (Homo sapiens, UniProt Q9BQP7), sequence (Q9BQP7 whole entry): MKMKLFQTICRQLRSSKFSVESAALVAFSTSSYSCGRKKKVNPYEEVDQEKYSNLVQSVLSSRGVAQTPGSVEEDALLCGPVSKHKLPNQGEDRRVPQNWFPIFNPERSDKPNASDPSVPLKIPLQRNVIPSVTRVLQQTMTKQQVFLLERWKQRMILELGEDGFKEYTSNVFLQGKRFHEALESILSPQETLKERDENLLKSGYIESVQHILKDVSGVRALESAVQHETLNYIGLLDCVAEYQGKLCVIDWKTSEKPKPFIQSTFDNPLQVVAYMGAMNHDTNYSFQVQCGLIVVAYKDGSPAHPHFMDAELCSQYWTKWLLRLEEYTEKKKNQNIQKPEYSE

[16] = target: proteins of U3A human fibrosarcoma cells (4462 proteins detected) (Homo sapiens, UniProt P24666); conditions: protein ACP1, U3A cells
[17] = target: proteins of U3A human fibrosarcoma cells (4462 proteins detected) (Homo sapiens, UniProt P56282); conditions: protein POLE2; U3A cells
[18] = target: proteins of U3A human fibrosarcoma cells (4462 proteins detected) (Homo sapiens, UniProt P04818); conditions: PISA
[19] = target: proteins of U3A human fibrosarcoma cells (4462 proteins detected) (Homo sapiens, UniProt P04920); conditions: protein SLC4A2; U3A cells
[20] = target: proteins of U3A human fibrosarcoma cells (4462 proteins detected) (Homo sapiens, UniProt O14972); conditions: protein DSCR3; U3A, 10 μM, 2 h
[21] = target: proteins of U3A human fibrosarcoma cells (4462 proteins detected) (Homo sapiens, UniProt P50281); conditions: protein MMP14; U3A cells
[22] = target: proteins of U3A human fibrosarcoma cells (4462 proteins detected) (Homo sapiens, UniProt Q06546); conditions: protein GABPA; U3A cells
[23] = target: proteins of U3A human fibrosarcoma cells (4462 proteins detected) (Homo sapiens, UniProt Q9NXW2); conditions: protein DNAJB12; soluble abundance after heat, U3A cells
[24] = target: proteins of U3A human fibrosarcoma cells (4462 proteins detected) (Homo sapiens, UniProt Q13131); conditions: protein PRKAA1; U3A cells
[25] = target: proteins of U3A human fibrosarcoma cells (4462 proteins detected) (Homo sapiens, UniProt Q9BY89); conditions: protein KIAA1671, U3A cells
[26] = target: proteins of U3A human fibrosarcoma cells (4462 proteins detected) (Homo sapiens, UniProt Q9UNX4); conditions: protein WDR3; U3A cells
proteins of U3A human fibrosarcoma cells (4462 proteins detected) (Homo sapiens, UniProt Q9UNX4), sequence (Q9UNX4 whole entry): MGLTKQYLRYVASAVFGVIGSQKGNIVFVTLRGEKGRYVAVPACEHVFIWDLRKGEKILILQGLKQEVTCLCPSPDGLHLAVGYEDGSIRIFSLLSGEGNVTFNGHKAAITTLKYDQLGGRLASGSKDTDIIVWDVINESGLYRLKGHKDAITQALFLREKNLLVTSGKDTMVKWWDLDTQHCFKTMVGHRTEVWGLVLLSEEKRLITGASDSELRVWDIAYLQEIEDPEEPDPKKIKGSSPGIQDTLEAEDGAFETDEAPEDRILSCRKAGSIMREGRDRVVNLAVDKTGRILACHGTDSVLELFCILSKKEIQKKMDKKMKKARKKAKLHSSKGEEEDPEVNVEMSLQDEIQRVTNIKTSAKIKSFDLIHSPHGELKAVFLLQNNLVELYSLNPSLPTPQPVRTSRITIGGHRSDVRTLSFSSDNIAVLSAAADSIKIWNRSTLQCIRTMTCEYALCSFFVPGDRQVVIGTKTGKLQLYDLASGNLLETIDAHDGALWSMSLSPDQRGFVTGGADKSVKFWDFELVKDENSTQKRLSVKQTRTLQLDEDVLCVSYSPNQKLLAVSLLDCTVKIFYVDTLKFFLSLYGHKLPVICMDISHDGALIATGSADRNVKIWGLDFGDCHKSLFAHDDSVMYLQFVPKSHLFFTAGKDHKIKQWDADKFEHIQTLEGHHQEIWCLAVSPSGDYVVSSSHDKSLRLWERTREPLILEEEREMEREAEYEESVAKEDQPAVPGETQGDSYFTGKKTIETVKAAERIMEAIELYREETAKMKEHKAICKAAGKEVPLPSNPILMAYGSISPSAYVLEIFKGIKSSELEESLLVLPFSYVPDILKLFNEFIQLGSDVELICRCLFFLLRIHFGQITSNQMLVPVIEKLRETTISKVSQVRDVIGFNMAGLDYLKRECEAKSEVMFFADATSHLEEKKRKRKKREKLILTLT

[27] = target: proteins of U3A human fibrosarcoma cells (4462 proteins detected) (Homo sapiens, UniProt Q75QN2); conditions: protein INTS8; U3A cells
[28] = target: proteins of U3A human fibrosarcoma cells (4462 proteins detected) (Homo sapiens, UniProt O76003); conditions: protein GLRX3; U3A cells
proteins of U3A human fibrosarcoma cells (4462 proteins detected) (Homo sapiens, UniProt O76003), sequence (O76003 whole entry): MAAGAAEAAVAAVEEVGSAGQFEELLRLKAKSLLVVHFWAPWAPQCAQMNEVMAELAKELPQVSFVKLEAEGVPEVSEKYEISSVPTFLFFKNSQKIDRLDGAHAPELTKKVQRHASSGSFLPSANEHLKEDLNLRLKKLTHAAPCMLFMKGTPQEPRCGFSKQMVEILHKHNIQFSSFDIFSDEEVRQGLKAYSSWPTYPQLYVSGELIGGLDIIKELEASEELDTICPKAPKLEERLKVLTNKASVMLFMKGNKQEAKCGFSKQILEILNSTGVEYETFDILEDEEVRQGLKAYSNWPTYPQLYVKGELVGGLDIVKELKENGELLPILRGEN

[29] = target: proteins of U3A human fibrosarcoma cells (4462 proteins detected) (Homo sapiens, UniProt Q9H6T3); conditions: protein RPAP3; soluble abundance after heat, U3A cells
[30] = target: proteins of U3A human fibrosarcoma cells (4462 proteins detected) (Homo sapiens, UniProt Q14669); conditions: protein TRIP12, U3A cells
proteins of U3A human fibrosarcoma cells (4462 proteins detected) (Homo sapiens, UniProt Q14669), sequence (Q14669 with tags, fused parts or gaps): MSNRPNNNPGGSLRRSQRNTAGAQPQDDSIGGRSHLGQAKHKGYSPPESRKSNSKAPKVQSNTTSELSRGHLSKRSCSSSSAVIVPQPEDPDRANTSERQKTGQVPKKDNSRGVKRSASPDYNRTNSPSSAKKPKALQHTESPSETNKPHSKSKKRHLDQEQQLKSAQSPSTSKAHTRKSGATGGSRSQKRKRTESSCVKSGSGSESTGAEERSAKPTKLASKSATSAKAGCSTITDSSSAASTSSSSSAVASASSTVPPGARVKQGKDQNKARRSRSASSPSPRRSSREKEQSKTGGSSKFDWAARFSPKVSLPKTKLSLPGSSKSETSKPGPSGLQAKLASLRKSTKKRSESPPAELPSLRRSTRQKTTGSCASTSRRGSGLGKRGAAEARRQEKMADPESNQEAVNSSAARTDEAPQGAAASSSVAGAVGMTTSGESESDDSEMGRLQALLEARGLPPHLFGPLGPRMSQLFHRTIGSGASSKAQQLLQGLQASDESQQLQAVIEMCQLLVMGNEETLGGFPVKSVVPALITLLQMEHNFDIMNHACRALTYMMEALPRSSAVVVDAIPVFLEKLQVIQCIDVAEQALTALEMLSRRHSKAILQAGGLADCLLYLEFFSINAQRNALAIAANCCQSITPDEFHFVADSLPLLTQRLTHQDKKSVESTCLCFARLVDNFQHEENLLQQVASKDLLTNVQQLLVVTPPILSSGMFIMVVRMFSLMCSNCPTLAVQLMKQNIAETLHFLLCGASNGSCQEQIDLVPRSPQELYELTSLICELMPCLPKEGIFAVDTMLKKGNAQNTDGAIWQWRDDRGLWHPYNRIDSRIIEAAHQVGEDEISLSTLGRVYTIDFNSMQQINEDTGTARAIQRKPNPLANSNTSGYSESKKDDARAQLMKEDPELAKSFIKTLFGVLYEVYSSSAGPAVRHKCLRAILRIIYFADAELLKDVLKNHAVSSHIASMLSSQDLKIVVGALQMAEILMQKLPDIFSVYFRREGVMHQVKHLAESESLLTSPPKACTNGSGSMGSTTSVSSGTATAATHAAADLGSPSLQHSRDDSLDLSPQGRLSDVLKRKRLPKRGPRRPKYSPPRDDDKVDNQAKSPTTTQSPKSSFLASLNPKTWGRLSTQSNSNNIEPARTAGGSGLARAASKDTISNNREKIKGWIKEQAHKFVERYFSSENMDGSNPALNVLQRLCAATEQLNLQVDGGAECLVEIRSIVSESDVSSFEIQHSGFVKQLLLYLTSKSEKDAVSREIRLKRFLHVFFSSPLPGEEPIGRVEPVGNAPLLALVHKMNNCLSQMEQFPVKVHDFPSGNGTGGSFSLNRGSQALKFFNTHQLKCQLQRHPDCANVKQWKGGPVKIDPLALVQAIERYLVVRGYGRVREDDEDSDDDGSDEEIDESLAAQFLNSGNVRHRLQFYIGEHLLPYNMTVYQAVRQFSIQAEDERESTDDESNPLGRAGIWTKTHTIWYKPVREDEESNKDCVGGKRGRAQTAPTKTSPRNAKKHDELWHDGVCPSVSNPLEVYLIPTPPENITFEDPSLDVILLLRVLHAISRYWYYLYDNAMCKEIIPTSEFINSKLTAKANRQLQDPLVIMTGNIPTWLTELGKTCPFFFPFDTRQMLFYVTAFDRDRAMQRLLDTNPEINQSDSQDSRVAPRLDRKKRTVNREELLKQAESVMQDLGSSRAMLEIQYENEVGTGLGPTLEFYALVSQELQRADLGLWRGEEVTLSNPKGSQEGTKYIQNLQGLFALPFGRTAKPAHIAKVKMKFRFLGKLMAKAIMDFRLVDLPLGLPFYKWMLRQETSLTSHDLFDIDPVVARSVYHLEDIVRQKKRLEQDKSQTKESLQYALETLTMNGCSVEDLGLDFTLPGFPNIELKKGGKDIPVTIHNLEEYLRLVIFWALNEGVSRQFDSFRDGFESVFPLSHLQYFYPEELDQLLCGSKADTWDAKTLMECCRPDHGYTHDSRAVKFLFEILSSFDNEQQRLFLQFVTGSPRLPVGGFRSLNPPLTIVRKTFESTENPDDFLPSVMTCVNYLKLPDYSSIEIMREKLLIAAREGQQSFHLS

proteins of U3A human fibrosarcoma cells (4462 proteins detected) (Homo sapiens, UniProt Q9Y2P8), sequence (Q9Y2P8 whole entry): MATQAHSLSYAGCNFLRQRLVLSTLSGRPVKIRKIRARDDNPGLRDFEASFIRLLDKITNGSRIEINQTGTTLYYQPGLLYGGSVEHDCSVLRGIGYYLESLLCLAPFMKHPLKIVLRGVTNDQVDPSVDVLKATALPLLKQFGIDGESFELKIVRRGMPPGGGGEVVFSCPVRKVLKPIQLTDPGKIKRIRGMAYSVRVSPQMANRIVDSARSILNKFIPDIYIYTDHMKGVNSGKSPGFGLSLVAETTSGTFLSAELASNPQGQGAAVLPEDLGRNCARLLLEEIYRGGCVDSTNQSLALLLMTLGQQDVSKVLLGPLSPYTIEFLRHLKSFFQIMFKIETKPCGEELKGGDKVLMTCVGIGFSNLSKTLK

CCc1nc(N)nc(N)c1-c1ccc(Cl)cc1 [pyrimethamine]
Log2 (PYR/DMSO) [1]: 0.21
Log2 (PYR/DMSO), ZNF148 [2]: 0.26
Log2 (PYR/DMSO) [3]: 0.17
Log2 (PYR/DMSO) [4]: 0.17
Log2 (PYR/DMSO) [5]: 0.17
Log2 (PYR/DMSO) [6]: -0.05
Log2 (PYR/DMSO) [7]: 0.16
Log2 (PYR/DMSO) [8]: 0.15
Log2 (PYR/DMSO), R3HCC1L [9]: -0.20
Log2 (PYR/DMSO) [10]: -0.05
Log2 (PYR/DMSO) [11]: 0.16
Log2 (PYR/DMSO) [12]: 0.22
Log2 (PYR/DMSO) [13]: 0.17
Log2 (PYR/DMSO) [14]: 0.16
Log2 (PYR/DMSO) [15]: 0.14
Log2 (PYR/DMSO) [16]: -0.04
Log2 (PYR/DMSO) [17]: 0.19
engagement of TS (thymidylate synthase) [18]: no engagement
Log2 (PYR/DMSO) [19]: 0.16
Log2 (PYR/DMSO), DSCR3 [20]: -0.16
Log2 (PYR/DMSO) [21]: 0.19
Log2 (PYR/DMSO) [22]: 0.19
Log2 (PYR/DMSO) [23]: 0.15
Log2 (PYR/DMSO) [24]: 0.19
Log2 (PYR/DMSO) [25]: -0.03
Log2 (PYR/DMSO) [26]: 0.17
Log2 (PYR/DMSO) [27]: 0.18
Log2 (PYR/DMSO) [28]: 0.16
Log2 (PYR/DMSO) [29]: 0.14
Log2 (PYR/DMSO) [30]: -0.04
